Measurements taken from patent publication US6506772B1, “Substituted [1,2,4]triazolo[1,5a]pyridine derivatives with activity as adenosine receptor ligands” (Hoffmann-La Roche Inc., priority 2000, dated 2003).

How the values were obtained:
HA1 adenosine receptor = target: T1, HA1 adenosine receptor (Homo sapiens, UniProt P30542); assay: Human adenosine A1 receptor affinity (Ki hA1); type: binding
T1 sequence (P30542 1-326): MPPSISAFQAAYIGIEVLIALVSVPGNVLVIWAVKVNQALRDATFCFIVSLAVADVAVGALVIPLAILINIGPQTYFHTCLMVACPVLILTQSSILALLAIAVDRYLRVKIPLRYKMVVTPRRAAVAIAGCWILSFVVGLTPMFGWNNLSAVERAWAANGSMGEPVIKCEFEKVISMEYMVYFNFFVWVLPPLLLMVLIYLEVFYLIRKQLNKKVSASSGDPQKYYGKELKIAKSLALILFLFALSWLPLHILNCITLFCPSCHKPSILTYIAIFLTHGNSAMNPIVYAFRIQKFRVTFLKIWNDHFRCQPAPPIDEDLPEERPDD

[1] = target: T2, human adenosine A2A receptor (Homo sapiens, UniProt P29274); assay: Human adenosine A2A receptor [3H]-SCH-58261 binding assay; conditions: for selectivity (A1/A2a): ratio KiHA1 divided by KiHA2A; for Ki: recombinant human A2A in CHO cell membranes, [3H]-SCH-58261, Cheng-Prussoff, read-out: Ki hA2A
T2 construct: expressed in transfected cells; host or cells: CHO cells, Semliki Forest virus expression system; membrane preparation
T2 sequence (P29274 whole entry): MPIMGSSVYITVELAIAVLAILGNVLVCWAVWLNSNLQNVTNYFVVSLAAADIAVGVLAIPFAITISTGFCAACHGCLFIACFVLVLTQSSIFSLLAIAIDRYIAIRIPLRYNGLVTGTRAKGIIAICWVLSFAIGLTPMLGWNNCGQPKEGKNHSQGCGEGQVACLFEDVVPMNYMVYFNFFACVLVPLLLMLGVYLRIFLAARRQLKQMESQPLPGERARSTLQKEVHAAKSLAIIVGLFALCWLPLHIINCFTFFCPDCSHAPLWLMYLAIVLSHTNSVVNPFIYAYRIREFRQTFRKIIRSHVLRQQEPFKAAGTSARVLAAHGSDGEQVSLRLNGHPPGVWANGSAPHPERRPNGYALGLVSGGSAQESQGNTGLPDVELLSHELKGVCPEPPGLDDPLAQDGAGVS

Row | Compound | Ki (HA1 adenosine receptor) [nM] | selectivity (A1/A2a) [1] | Ki [1] [nM]
1 | COC[C@@H]1CCCN1C(=O)c1cc(N)n2nc(-c3ccccn3)nc2c1 [Example 426, (5-Amino-2-pyridin-2-yl-[1,2,4]triazolo[1,5-a]pyridin-7-yl)-(S-2-methoxymethyl-pyrrolidin-1-yl)-methanone] | 2050 | 17.2 | 119
2 | CCCCN(CCC)C(=O)c1cc(N)n2nc(-c3ccccn3)nc2c1 [Example 427, 5-Amino-2-pyridin-2-yl-[1,2,4]triazolo[1,5-a]pyridine-7-carboxylic acid butyl-propyl-amide] | 1190 | 11.7 | 102
3 | CN(C)C(=O)C1CCCN1C(=O)c1cc(N)n2nc(-c3ccccn3)nc2c1 (stereo not drawn) [Example 432, 1-(5-Amino-2-pyridin-2-yl-[1,2,4]triazolo[1,5-a]pyridine-7-carbonyl)-pyrrolidine-2-carboxylic acid dimethyl amide] | 2400 | 27.2 | 88
4 | CCN(CCOC)C(=O)c1cc(N)n2nc(-c3nccs3)nc2c1 [Example 498, 5-Amino-2-thiazol-2-yl-[1,2,4]triazolo[1,5-a]pyridine-7-carboxylic acid ethyl-(2-methoxy-ethyl)-amide] | 3990 | 21 | 190

The next compounds have a lower Ki (HA1 adenosine receptor) than those just listed; values first:

Row | Ki (HA1 adenosine receptor) [nM] | selectivity (A1/A2a) [1] | Ki [1] [nM] | Compound
5 | 1030 | 31.2 | 33.1 | CCN(Cc1ccncc1)C(=O)c1cc(N)n2nc(-c3ccccn3)nc2c1 [Example 431, 5-Amino-2-pyridin-2-yl-[1,2,4]triazolo[1,5-a]pyridine-7-carboxylic acid ethyl-pyridin-4-ylmethyl-amide]
6 | 689 | 10.8 | 63.6 | CCC1CCC(C)N(C(=O)c2cc(N)n3nc(-c4ccccn4)nc3c2)C1 (stereo not drawn) [Example 430, (5-Amino-2-pyridin-2-yl-[1,2,4]triazolo[1,5-a]pyridin-7-yl)-(5-ethyl-2-methyl-piperidin-1-yl)-methanone]
7 | 474 | 15.3 | 31 | C=CCN(C(=O)c1cc(N)n2nc(-c3ccccn3)nc2c1)C1CCCC1 [Example 429, 5-Amino-2-pyridin-2-yl-[1,2,4]triazolo[1,5-a]pyridine-7-carboxylic acid allyl-cyclopentyl-amide]
8 | 185 | 11.8 | 15.6 | CC(C)N(Cc1ccccc1)C(=O)c1cc(N)n2nc(-c3ccccn3)nc2c1 [Example 433, 5-Amino-2-pyridin-2-yl-[1,2,4]triazolo[1,5-a]pyridine-7-carboxylic acid benzyl-isopropyl-amide]
9 | 121 | 19 | 6.4 | Nc1cc(C(=O)N(Cc2ccccc2)Cc2ccccc2)cc2nc(-c3ccccn3)nn12 [Example 435, 5-Amino-2-pyridin-2-yl-[1,2,4]triazolo[1,5-a]pyridine-7-carboxylic acid dibenzylamide]
